Blank lines part the entries; values can stand above or below the molecule they belong to. Calls of active or inactive are those of the source. Unless noted, the calls are words filed in the database; no cut-off is given here.
Tests used:
[1] = target: Luciferin 4-monooxygenase (Photinus pyralis, UniProt P08659); experiment: firefly luciferase enzyme inhibitors, dose response, biochemical, luminescence (AID 1891)
[2] = Luminescence Cell-Based Dose Confirmation HTS to Identify Inhibitors of Platelet Dense Granule Release. [Related pubchem assays: 1663 (Primary HTS), 1678 (Summary of Project)]; assay type: functional
[3] = target: T1, E3 ubiquitin-protein ligase XIAP (Homo sapiens, UniProt P98170); experiment: Counter Screen using XIAP-Bir3 for Chemical Antagonists of Bir1/2 domains of IAP-family anti-apoptotic proteins. [Related pubchem assays (depositor defined):AID1018, AID1449, AID1514, AID1638, AID1749, AID1750, AID488957, AID488963]
[4] = target: T1, E3 ubiquitin-protein ligase XIAP; experiment: XIAP antagonists, biochemical, IAP family, fluorescence polarization (AID 1018); assay type: functional
[5] = target: T2, Tyrosine-protein phosphatase non-receptor type 7 (Homo sapiens, UniProt P35236); experiment: redox-dependent HePTP inhibition, mechanism study, biochemical, fluorescence (AID 2068); assay type: functional
T2 sequence (P35236 whole entry): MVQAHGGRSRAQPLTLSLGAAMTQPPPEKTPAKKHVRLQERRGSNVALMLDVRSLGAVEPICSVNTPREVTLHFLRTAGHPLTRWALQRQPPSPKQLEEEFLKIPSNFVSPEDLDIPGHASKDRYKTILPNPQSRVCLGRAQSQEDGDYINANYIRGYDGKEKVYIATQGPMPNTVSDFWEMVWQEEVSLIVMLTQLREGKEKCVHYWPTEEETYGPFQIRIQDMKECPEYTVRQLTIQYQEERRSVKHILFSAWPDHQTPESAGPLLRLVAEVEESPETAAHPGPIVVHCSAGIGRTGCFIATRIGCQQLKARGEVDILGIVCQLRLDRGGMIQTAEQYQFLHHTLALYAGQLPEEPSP

[6] = target: Mu-type opioid receptor (Homo sapiens, UniProt P35372); experiment: SAR Analysis of Antagonists of the MOR Receptor using an Image-Based Assay - Set 3. [Related pubchem assays (depositor defined):AID1777, AID1785, AID1786, AID1966, AID2133, AID2136, AID2284, AID2285, AID2420]; assay type: functional
[7] = target: T3, Kappa-type opioid receptor (Homo sapiens, UniProt P41145); experiment: SAR analysis of small molecule antagonists of the kappa opioid receptor via a luminescent beta-arrestin assay - Set 4. [Related pubchem assays (depositor defined):AID1777, AID1778, AID1785, AID1786, AID1966, AID2133, AID2136, AID2285]; assay type: functional
[8] = target: Delta-type opioid receptor (Homo sapiens, UniProt P41143); experiment: SAR Analysis of Antagonists of the DOR Receptor using an Image-Based Assay - Set 3. [Related pubchem assays (depositor defined):AID1777, AID1785]; assay type: functional;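 further: U2OS cells expressing DOR1 and beta-arrestin GFP stimulated with 100 nM SNC80; imaging of GFP-tagged beta-arrestin moving into spots after receptor activation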
[9] = target: T3, Kappa-type opioid receptor; experiment: SAR analysis of Antagonists of the Kappa Opioid Receptor (KOR) using an Image-Based Assay - Set 4. [Related pubchem assays (depositor defined):AID1777, AID1785]; assay type: functional
[10] = target: Induced myeloid leukemia cell differentiation protein Mcl-1 (Homo sapiens, UniProt Q07820); assay type: functional
[11] = target: Troponin, cardiac muscle (Homo sapiens, UniProt P19429+P45379+P63316); experiment: Fluorescence-based biochemical high throughput dose response assay for activators of the calcium sensitivity of cardiac Regulated Thin Filaments (RTF). [Related pubchem assays (depositor defined):AID493008, AID493018, AID504382, AID504383]; assay type: protein-complex assay
[12] = target: T4, Heat shock factor protein 1 (Mus musculus, UniProt P38532); experiment: HSF1 potentiators in luciferase reporter cells, confirmation, cell-based, NIH3T3, luminescence, dose retest (AID 435004); assay type: functional;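 further: stress induced by proteasome inhibitor MG132 added 30 min after compound; luciferase reporter driven by HSF1 response element in NIH3T3 cells; actives raise luminescence as potentiators of the MG132 stress response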
T4 sequence (P38532 whole entry): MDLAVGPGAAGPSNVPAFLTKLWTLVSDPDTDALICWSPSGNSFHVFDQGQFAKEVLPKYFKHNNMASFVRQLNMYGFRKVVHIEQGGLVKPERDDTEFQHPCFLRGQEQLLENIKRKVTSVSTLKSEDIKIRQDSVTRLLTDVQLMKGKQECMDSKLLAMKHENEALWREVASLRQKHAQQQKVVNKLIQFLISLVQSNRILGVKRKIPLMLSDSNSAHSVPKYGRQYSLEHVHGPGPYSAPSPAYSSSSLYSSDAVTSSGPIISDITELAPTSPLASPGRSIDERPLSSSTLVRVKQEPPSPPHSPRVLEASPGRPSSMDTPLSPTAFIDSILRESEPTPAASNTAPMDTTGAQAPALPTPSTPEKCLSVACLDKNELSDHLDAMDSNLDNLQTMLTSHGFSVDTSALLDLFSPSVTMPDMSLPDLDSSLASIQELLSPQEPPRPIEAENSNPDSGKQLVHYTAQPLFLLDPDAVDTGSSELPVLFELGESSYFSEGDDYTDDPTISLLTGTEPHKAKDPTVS

[13] = target: NADPH oxidase 1 (Homo sapiens, UniProt Q9Y5S8); experiment: Late stage results from the probe development effort to identify inhibitors of NOX1: HEK/293 IC50. [Related pubchem assays: 1796 (Summary AID (NOX1)), 2752 (Primary screen (NOX1 inhibitors, synthesized analogs set 2)), 2664 (Primary screen (NOX1 inhibitors, synthesized analogs)), 1792 (Primary Screen (NOX1)), 2545 (Confirmation screen (NOX1 …; assay type: functional
[14] = target: NADPH oxidase 4 (Homo sapiens, UniProt Q9NPH5); experiment: PubChem AID 435013
[15] = target: NADPH oxidase 3 (Homo sapiens, UniProt Q9HBY0); experiment: PubChem AID 435013
[16] = target: NADPH oxidase 2 (Homo sapiens, UniProt P04839); experiment: PubChem AID 435013
Sequence of NADPH oxidase 2 (P04839 whole entry): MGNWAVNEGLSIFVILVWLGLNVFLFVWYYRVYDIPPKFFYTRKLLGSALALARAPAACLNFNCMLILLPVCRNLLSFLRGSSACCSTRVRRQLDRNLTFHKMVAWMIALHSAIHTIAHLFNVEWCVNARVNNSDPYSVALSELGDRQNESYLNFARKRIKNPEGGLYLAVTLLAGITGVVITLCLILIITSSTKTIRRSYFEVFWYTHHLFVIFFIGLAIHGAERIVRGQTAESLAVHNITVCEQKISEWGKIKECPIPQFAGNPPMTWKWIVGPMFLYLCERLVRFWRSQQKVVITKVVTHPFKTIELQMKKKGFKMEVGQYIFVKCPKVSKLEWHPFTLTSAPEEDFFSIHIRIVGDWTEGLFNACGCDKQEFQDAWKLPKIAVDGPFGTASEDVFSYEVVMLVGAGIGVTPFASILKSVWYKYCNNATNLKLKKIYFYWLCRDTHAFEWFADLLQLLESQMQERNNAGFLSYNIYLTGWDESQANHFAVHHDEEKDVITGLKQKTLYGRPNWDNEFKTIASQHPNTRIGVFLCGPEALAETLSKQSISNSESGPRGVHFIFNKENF

T1 sequence (P98170 whole entry): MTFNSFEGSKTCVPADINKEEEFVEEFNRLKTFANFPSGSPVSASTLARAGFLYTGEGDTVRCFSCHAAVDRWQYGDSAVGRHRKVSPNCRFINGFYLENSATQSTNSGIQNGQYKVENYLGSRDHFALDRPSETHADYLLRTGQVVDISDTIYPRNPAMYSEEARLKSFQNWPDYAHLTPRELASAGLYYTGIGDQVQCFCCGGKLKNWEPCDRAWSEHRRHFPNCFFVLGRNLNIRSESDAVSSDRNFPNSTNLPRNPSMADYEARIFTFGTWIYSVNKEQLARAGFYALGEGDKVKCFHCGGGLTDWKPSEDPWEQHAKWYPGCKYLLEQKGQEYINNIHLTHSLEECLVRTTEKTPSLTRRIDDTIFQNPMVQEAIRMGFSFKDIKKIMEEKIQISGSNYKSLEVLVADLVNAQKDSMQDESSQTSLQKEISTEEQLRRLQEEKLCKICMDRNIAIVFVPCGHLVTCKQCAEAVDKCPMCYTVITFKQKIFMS
T3 sequence (P41145 whole entry): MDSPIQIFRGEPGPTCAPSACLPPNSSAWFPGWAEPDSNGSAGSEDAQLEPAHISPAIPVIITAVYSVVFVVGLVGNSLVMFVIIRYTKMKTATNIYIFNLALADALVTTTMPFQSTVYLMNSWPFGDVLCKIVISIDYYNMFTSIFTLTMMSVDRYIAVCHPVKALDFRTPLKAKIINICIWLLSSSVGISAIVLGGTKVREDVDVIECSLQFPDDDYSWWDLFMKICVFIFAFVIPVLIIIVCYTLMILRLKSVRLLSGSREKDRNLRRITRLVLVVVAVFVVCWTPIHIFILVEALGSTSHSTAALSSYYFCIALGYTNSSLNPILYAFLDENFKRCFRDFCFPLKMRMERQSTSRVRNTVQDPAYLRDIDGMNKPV
Sequence of Delta-type opioid receptor (P41143 whole entry): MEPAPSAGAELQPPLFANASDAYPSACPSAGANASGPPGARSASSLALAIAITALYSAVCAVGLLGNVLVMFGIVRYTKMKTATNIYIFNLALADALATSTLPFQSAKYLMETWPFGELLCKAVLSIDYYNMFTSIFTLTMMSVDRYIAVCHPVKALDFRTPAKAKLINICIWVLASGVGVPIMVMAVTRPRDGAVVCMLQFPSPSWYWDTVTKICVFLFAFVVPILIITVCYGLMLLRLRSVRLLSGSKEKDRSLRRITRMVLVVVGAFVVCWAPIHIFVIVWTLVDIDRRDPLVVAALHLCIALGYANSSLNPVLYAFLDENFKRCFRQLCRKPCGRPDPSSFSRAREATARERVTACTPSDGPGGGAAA
Sequence of Luciferin 4-monooxygenase (P08659 whole entry): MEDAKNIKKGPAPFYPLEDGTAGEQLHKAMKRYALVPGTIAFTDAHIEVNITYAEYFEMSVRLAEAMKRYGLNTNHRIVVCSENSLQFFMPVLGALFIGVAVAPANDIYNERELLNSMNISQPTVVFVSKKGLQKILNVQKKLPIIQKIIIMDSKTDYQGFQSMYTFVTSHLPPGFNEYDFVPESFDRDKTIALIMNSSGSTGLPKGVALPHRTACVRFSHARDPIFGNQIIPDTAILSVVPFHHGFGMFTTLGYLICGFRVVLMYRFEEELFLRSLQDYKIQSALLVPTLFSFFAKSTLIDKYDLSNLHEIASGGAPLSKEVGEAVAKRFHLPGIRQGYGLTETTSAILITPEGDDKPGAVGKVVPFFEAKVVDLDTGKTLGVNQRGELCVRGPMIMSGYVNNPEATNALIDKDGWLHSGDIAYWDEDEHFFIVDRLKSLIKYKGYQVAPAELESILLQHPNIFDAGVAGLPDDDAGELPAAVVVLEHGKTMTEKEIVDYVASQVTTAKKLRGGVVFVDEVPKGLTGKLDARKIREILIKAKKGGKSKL
Sequence of NADPH oxidase 4 (Q9NPH5 whole entry): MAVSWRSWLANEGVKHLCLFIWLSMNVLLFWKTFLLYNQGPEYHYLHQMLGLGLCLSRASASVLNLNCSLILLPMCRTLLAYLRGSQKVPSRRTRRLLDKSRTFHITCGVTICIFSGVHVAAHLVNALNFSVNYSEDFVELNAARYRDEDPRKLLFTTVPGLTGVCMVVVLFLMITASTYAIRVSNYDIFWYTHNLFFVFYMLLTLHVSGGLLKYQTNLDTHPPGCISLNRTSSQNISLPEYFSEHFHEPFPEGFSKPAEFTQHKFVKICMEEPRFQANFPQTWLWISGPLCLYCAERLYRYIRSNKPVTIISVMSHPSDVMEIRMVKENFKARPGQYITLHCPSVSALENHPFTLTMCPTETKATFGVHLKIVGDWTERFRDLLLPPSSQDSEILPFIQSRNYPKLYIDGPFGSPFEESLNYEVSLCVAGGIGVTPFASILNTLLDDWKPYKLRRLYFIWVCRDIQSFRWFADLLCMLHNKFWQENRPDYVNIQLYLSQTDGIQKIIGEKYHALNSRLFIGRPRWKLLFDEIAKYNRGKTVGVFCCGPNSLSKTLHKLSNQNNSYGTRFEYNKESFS
Sequence of Mu-type opioid receptor (P35372 whole entry): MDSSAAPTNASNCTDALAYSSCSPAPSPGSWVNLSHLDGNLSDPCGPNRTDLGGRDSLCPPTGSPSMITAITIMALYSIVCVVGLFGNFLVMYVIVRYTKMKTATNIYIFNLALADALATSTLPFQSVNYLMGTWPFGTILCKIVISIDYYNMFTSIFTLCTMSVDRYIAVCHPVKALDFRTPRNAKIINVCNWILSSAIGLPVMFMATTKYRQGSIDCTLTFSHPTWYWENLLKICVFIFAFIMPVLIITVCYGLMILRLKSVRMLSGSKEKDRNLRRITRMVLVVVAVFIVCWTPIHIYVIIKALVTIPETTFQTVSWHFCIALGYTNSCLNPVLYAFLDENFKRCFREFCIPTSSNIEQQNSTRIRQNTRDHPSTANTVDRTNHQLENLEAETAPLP
Sequence of Induced myeloid leukemia cell differentiation protein Mcl-1 (Q07820 whole entry): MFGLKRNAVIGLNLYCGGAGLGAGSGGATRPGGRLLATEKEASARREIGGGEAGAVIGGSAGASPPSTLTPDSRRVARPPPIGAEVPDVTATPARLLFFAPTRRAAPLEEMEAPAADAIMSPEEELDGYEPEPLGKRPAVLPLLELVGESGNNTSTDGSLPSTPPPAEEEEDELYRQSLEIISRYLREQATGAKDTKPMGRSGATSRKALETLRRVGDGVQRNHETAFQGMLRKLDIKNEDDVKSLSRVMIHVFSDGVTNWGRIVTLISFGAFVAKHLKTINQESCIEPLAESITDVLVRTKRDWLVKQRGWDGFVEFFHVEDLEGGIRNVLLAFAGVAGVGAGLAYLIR
Sequence of NADPH oxidase 1 (Q9Y5S8 whole entry): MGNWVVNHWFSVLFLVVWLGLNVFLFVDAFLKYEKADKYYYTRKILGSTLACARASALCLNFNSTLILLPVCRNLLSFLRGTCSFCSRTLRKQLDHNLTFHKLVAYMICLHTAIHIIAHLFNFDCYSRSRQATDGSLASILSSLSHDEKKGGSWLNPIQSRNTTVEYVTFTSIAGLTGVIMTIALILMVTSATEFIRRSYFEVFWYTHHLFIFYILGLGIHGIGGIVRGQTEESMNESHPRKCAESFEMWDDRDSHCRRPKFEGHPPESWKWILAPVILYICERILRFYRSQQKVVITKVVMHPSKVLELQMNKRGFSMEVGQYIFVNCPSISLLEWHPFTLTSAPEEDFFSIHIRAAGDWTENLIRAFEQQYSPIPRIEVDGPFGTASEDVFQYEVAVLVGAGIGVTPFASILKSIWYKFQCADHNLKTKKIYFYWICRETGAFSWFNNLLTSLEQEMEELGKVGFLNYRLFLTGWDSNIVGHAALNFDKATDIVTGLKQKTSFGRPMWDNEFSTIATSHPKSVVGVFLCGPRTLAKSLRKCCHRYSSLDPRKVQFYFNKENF
Sequence of NADPH oxidase 3 (Q9HBY0 whole entry): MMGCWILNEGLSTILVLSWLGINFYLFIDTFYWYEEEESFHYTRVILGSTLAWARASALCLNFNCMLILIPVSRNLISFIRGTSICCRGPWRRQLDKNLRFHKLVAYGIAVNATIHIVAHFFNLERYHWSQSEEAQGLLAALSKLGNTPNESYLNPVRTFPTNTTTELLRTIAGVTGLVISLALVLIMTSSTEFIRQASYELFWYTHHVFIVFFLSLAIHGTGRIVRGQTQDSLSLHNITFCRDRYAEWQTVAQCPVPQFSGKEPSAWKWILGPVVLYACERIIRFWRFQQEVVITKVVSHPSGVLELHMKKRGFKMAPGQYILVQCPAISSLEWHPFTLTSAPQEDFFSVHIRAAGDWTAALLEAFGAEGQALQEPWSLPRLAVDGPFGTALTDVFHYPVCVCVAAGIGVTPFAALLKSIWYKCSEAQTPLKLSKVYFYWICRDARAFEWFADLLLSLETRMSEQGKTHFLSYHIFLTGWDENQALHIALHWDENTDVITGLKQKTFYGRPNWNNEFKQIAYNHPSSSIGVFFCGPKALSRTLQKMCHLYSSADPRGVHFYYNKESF

Structure (SMILES): Cc1ccnc(N2C(=O)c3ccccc3C2O)c1 (stereo unspecified)
EC50 [1]: 27.7 µM (active) | EC50 [2]: 6.49 µM (active) | IC50 [3]: > 100 µM (inactive) | IC50 [4]: > 100 µM (not active)

Structure (SMILES): CCCc1ccc(S(=O)(=O)NCc2ccc(C(=O)NCCN(Cc3ccccc3)C(C)C)cc2)cc1
IC50 [6]: > 32 µM (inactive) | IC50 [7]: 2 µM (active) | IC50 [8]: > 32 µM (inactive) | IC50 [9]: 2.25 µM (active)

Structure (SMILES): COc1ccc(N/C=C2\C(=O)CCc3c2oc2cc(Cl)c(O)c(Cl)c32)cc1
IC50 [10]: 4.32 µM (active) | EC50 [11]: 3.93 µM (active) | EC50 [12]: > 260 µM (inactive)

Now from value to molecule:

IC50 [5]: 1.01 µM (active)
Structure (SMILES): CCCNC(=O)Nc1ccc2nc(-c3ccco3)c(-c3ccco3)nc2c1

IC50 [13]: 1 µM (active) | IC50 [14]: 5 µM (active) | IC50 [15]: 7.5 µM (active) | IC50 [16]: 9 µM (active)
Structure (SMILES): FC(F)(F)c1ccc2c(c1)Nc1ccccc1S2

— ChEMBL document CHEMBL1201862, “PubChem BioAssay data set” (2004)
